# Measurements: patent US20020173505A1, “Medicament” (priority 1999, published 2002)
# Columns and labels:
# [1] = tested on: human in vitro preparations (airway smooth muscle); test: spontaneous tone in human in vitro airway preparations; details: for nature of the relaxation of spontaneous tone (transient or persistent): human in vitro preparations
# Protocol: (§1) The examinations of the spontaneous tone were performed in accordance with the methods disclosed in the thesis “Regulation of spontaneous tone in guinea pig trachea” by S.Skogvall, Department of Physiological Sci- ences, Lund University, 1999, which is incorporated herein by reference. As evidenced by these examinations, the airways normally display a highly regular type of oscillating tone if exposed to physiological conditions, and the oscillating tone can be reversibly affected by administration of various substances- When the epithelium is removed, the preparations instead display a strong, smooth type of tone.
# Similar experiments have also been performed on human in vitro preparations, from patients undergoing lobecotomy or pulmectomy due to lung cancer.
# Human airways are generally considered to display only a weak contraction when exposed to S-HT. Nevertheless, examinations on spontaneous tone on human in vitro preparations have shown that 5-HT indeed has a contractile component also in this tissue. However, this contraction takes a longer time to develop than in guinea pig and the contractile effect is seen as a termination of the relaxation, rather than an increase of tone from the baseline. In guinea pig trachea, the contraction reaches a maximum after approximately 10 min, and this is followed by a considerable reduction of tone. However, human preparations instead induce a maximum relaxing effect after 5-10 min, which disappears gradually during the following 30-45 min (see FIG. 1).
# [2] = tested on: denuded airway smooth muscle preparations from the guinea-pig; test: spontaneous tone of denuded guinea-pig airway smooth muscle preparations
# From the text: The subject-matter of the present invention was inter alia deduced from animal experiments, where a specific behavior of the airway smooth muscle called “spontaneous tone” was examined. The spontaneous tone, which involves a spontaneous continuous contraction in the airway smooth muscle, was studied due to a suspicion that detective regulation of the spontaneous tone could be an important cause of the bronchoconstriction observed in asthmatic patients.
# as §1
# A contractile effect of serotonin on airway smooth muscle has been reported in e.g. SkQgvall, S., Korsgren, M-, Grampp, W., J. Appl. Phys., 86:789-798, 1999. […] The spontaneous tone returned to approximately its normal level when the preparations were again exposed to control conditions.
Compound,nature of the relaxation of spontaneous tone (transient or persistent) ([1]; FIG. 1),"average force level of spontaneous tone ([2]; 1 μM added, denuded preparations with strong, smooth spontaneous tone)","spontaneous tone, level relative to force in control (drug-free) conditions ([2]; 10 μM added, denuded preparations)",time to maximum contraction ([2]; guinea pig trachea),"effect on spontaneous tone ([1]; 1 μM, tissue from patients undergoing lobectomy or pulmectomy)","time over which the relaxing effect gradually disappears after the maximum ([1]; human preparations, FIG. 1) [min]","time to maximum relaxing effect ([1]; human preparations, FIG. 1) [min]"
"NCCc1c[nH]c2ccc(C(N)=O)cc12 [5-carboxiamidotryptamine, 5-carboxamidotryptamine]",persistent and not transient,,,,,,
"COc1cc(N)c(Cl)cc1C(=O)NC[C@@H]1CCN2CCC[C@@H]12 [SC 53116, 4-amino-5-chloro-N-[[lS, 7aS)-hexahydro-1H-pyrrolizin-l-yl]methyll-2-methoxy-benzamide]",persistent and not transient,,,,,,
"NCCc1c[nH]c2ccc(O)cc12 [serotonin, 3-(P-aminoethyl)-5-hydroxyindole]",transient relaxation,increased significantly,about half,approximately 10 min,significant relaxation,30 to 45,5 to 10
